Measured values reported in PubChem BioAssay (NCI).
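Five compound concentrations were applied to cells in 96-well plates for 48 hours; endpoints were derived by simple linear interpolation of the resulting dose-response curve. TGI: total growth inhibition.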

How the values were obtained:
Assay in all cases: DTP human tumour cell line panel, 48 h
MDA-MB-435 = system: MDA-MB-435
NCI-H460 lung = system: NCI-H460 lung
MCF7 breast = system: MCF7 breast
HL-60(TB) leukemia = system: HL-60(TB) leukemia
SR leukemia = system: SR leukemia
SW-620 colon = system: SW-620 colon
SF-268 CNS = system: SF-268 CNS
UO-31 renal = system: UO-31 renal
CAKI-1 renal = system: CAKI-1 renal
MALME-3M melanoma = system: MALME-3M melanoma

Row | Structure (SMILES) | TGI (MDA-MB-435) [µM] | TGI (NCI-H460 lung) [µM] | TGI (MCF7 breast) [µM] | TGI (HL-60(TB) leukemia) [µM] | TGI (SR leukemia) [µM] | TGI (SW-620 colon) [µM] | TGI (SF-268 CNS) [µM] | TGI (UO-31 renal) [µM] | TGI (CAKI-1 renal) [µM] | TGI (MALME-3M melanoma) [µM]
1 | Cc1cc(C)nc(NS(=O)(=O)c2ccc(NC(=O)c3cccc4c(NNc5ccc(S(=O)(=O)N=C(N)N)cc5)c5ccccc5nc34)cc2)n1 | > 50 | > 50 | > 50 | > 50 | > 50 | > 50 | > 50 | > 50 | > 50 | > 50
2 | COc1ccc([C@H]2C=[N+]([O-])O[C@H](OC3CCCC3)[C@@H]2OC(C)=O)cc1OC | 67.5 | > 100 | 49.5 | 39.1 | > 100 | 53 | > 100 | 40.6 | 29.3 | 51.2
3 | CCOC(=O)C1CCC(=O)N1C(=O)c1ccccc1Cl (stereo not given) | > 100 | > 100 | > 100 | > 100 | > 100 | > 100 | > 100 | > 100 | > 100 | > 100
4 | C/C(=C\CO)CC/C=C(\C)CNc1ccc([N+](=O)[O-])cc1 | 84.9 | > 100 | > 100 | 57.2 | 27.1 | > 100 | > 100 | 45.9 | > 100 | 34.6
5 | CC1(C)CC(C#Cc2ccccc2)CC(C)(C)N1O | 44.6 | 44.8 | 36.3 | 64.4 | > 100 | 50.5 | 83.1 | 32.4 | 61.3 | 32.9
6 | O=C1C2=Nc3ccccc3C(O)(C(=O)O)N2c2ccccc21 (stereo not given) | 5.5 | 39.3 | 46.8 | 77 | > 100 | > 100 | > 100 | > 100 | > 100 | 28.2
7 | COc1nc2c(N3CCCC3)nc(N3CCNCC3)nc2nc1NCc1ccccc1 | 2.95 | 4.91 | 3.46 | 3.7 | 3.37 | 11.1 | 5 | 2.85 | 8.8 | 3.55
8 | CCOC(=O)NC(Nc1c(F)c(F)c(F)c(F)c1F)(C(F)(F)F)C(F)(F)F | > 100 | > 100 | > 100 | > 100 | > 100 | > 100 | > 100 | > 100 | > 100 | > 100
9 | C[C@H]1[C@H](C)CC[C@]2(C(=O)OC3OC(CO)C(O)C(O)C3O)CC[C@]3(C)C(=CC[C@@H]4[C@@]5(C)C[C@H]6OC(=O)c7cc(O)c(O)c(O)c7-c7c(cc(O)c(O)c7O)C(=O)O[C@@H]6C(CO)(CO)[C@@H]5CC[C@]43C)[C@H]12 (stereo not given in full) | 36.2 | > 100 | 38.5 | > 100 | > 96.3 | > 100 | > 100 | > 100 | > 84.1 | > 100
10 | C(=C\c1ccccc1)/COc1ccccc1C(N1CCOCC1)n1nc2ccccc2n1 (stereo not given) | 1.9 | > 51.3 | 6.57 | 1.45 | 5.49 | 36.5 | 28.5 | 31.6 | 43.7 | 14.4
11 | COc1ccc(OC)c2sc(N3C(=O)/C(=C/c4cccc([N+](=O)[O-])c4)N=C3c3ccccc3)nc12 | 58.3 | > 100 | 48.9 | 59.4 | 70.3 | 95.2 | > 100 | > 100 | > 100 | > 100
12 | O=[N+]([O-])/C(Cl)=C(\NCCN/C(C(Cl)=C(Cl)Cl)=C(/Cl)[N+](=O)[O-])C(Cl)=C(Cl)Cl | > 100 | > 100 | > 100 | 87.5 | 50.4 | > 100 | > 100 | > 100 | > 100 | > 100
13 | O=C(OCC1OC(n2nc(Cn3nnc(-c4cccnc4)n3)n(-c3cccc4ccccc34)c2=S)C(OC(=O)c2ccccc2)C1OC(=O)c1ccccc1)c1ccccc1 (stereo not given) | > 100 | > 100 | > 100 | > 100 | > 100 | > 100 | > 100 | > 100 | > 100 | > 100
14 | CC(C)/C(Cl)=N/OC(=O)Nc1ccc(OC(F)(F)F)cc1 | 25.3 | 31.2 | 28 | 5.76 | 8.44 | 3.27 | 39.1 | 23.8 | 9.55 | 6.5
15 | Clc1ccc(/C(=C\c2ccccc2)Cn2ccnc2)cc1 | 34.6 | 44.8 | 44.5 | 45.5 | > 100 | > 100 | 53.4 | 32.4 | 30.1 | 27
16 | CCOC(=O)c1ccc(Nc2nc3ccc(C(F)(F)F)cc3nc2C(=O)OCC)cc1 | > 100 | > 100 | > 100 | > 100 | > 100 | > 100 | > 100 | > 100 | > 100 | > 100
17 | COC(=O)N1N=C(c2ccccc2)C1c1ccccc1 (stereo not given) | > 100 | > 100 | > 100 | > 100 | > 100 | > 100 | > 100 | 52.9 | > 100 | > 100

Row | Structure (SMILES) | TGI (MDA-MB-435) [µM] | TGI (NCI-H460 lung) [µM] | TGI (MCF7 breast) [µM] | TGI (HL-60(TB) leukemia) [µM] | TGI (SR leukemia) [µM] | TGI (SW-620 colon) [µM] | TGI (SF-268 CNS) [µM] | TGI (UO-31 renal) [µM] | TGI (CAKI-1 renal) [µM] | TGI (MALME-3M melanoma) [µM]
18 | CN(C)CCCNC(=O)c1c(O)c2ccccc2n(C)c1=O | > 100 | > 100 | > 100 | > 100 | > 100 | > 100 | > 100 | > 100 | > 100 | > 100
19 | O=C1C(C(O)(C(F)(F)F)C(F)(F)F)CCC1C(O)(C(F)(F)F)C(F)(F)F (stereo not given) | > 67.6 | > 100 | 2.26 | 6.44 | 43.8 | > 100 | > 100 | 34.3 | 19.8 | 17.9
20 | Cc1cc(NS(=O)(=O)c2ccc(NC(NC(=O)C(C(F)(F)F)C(F)(F)F)(C(F)(F)F)C(F)(F)F)cc2)no1 | > 100 | > 100 | > 100 | > 100 | > 100 | > 100 | > 100 | > 100 | > 100 | > 100
21 | CCN(CCCl)c1cc(CN(C)C)cc(NC(=O)c2ccc(C(=O)Nc3cccc(CN(C)C)c3)cc2)c1 | 0.665 | 10.6 | 1 | 0.444 | 1.56 | 0.75 | 63.1 | 76.3 | > 100 | 2.81
22 | Cc1c(-c2ccccc2)[nH]n(C2=NCCN2)c1=O | > 100 | > 100 | > 100 | > 100 | > 100 | > 100 | > 100 | > 100 | > 100 | > 100
23 | CCN(CC)CCO/N=C1\CC[C@H]2[C@@H]3CCc4cc(OC)ccc4[C@H]3CC[C@]12C | 1.48 | 2.15 | 9.49 | 3.12 | 4.31 | 3.47 | 7.05 | 7.77 | 2.13 | 3.28
24 | COc1cc(C(O)c2ccc3c(c2)OCO3)cc(OC)c1OC (stereo not given) | > 100 | > 100 | > 100 | > 100 | > 100 | > 100 | > 100 | > 100 | > 100 | > 100
25 | COc1ccc(Oc2cnn(C(Br)(Br)C(C)=O)c(=O)c2Br)cc1 | 23.4 | 37.1 | 34.8 | 10.9 | 5.32 | 27.8 | 29 | 26.8 | 24.6 | 32.2
26 | c1ccc([P+](CCCCCCCC[P+](c2ccccc2)(c2ccccc2)c2ccccc2)(c2ccccc2)c2ccccc2)cc1 | > 68.4 | > 48.1 | > 87.5 | > 31.8 | 51.6 | > 100 | > 100 | > 100 | > 100 | > 100
27 | CCNc1ncnc2sc(SCc3ccccc3)nc12 | > 100 | > 100 | > 100 | 56.4 | > 100 | > 100 | > 100 | > 100 | > 100 | > 100
28 | CC(C)C1=C(O)C2=C(C(=O)C1=O)C1(C)CCCC(C)(C)C1C(O)C2OC=O (stereo not given) | 11.8 | 12.7 | 27.7 | 18.7 | 6.52 | 13.1 | 24.4 | 18.8 | 11.7 | 23.7
29 | CC(C)=CCC[C@@H](C)C1=C(O)C(N)=C(C)C(=O)C1=O | > 100 | > 100 | > 100 | 10.9 | > 78.4 | > 100 | > 100 | > 71.1 | > 83.6 | > 100
30 | O=C(/C=C/c1ccc2c(c1)OCO2)Cc1nc2ccccc2[nH]c1=O | 46.1 | > 100 | > 100 | > 100 | > 100 | > 100 | 55.3 | 50.9 | 48.1 | 43.4
31 | O=[N+]([O-])c1ccc2c(c1)c(N=NC(=S)Nc1ccc(Cl)cc1)c(O)n2CN1CCOCC1 | 19.2 | 20.3 | 18.8 | 11.5 | 8.44 | 30.8 | 16.5 | 15.7 | 12.4 | 18.8
32 | O=C(CC(=O)Nc1ccccc1)NNC(c1cc(N=Nc2ccc(Br)cc2)ccc1O)P(O)O (stereo not given) | > 10 | > 10 | > 10 | 1.12 | > 10 | > 10 | > 10 | > 10 | > 10 | > 10
33 | CC1(C)N=C2C(=O)c3c([nH]c4ccccc34)[C@]3(C)CCC1CC23 (stereo not given in full) | > 6.25 | > 6.25 | > 6.25 | > 6.25 | > 6.25 | > 6.25 | > 6.25 | > 6.25 | > 6.25 | > 6.25
